The text below walks through data of patent publication US7825068B2, “Heterocyclylethylcarboxamide derivatives” (Bayer Cropscience AG, priority 2005, dated 2010).

In experiment [1] the test system is Pyrenophora teres. The experiment is described as follows: In vivo test on Pyrenophora teres (preventive spray on barley plants). The following applies: 330 ppm; comparison compounds of WO 2004/074280. The procedure:
The active ingredient tested is prepared by potter homogenisation in a concentrated suspension type formulation at 100 g/l. […] Barley plants (Express variety) in starter cups, sown on a 50/50 peat soil-pozzolana substrate and grown at 12° C., are treated at the 1-leaf stage (10 cm tall) by spraying with the aqueous suspension described above. Plants, used as controls, are treated with an aqueous solution not containing the active material. After 24 hours, the plants are contaminated by spraying them with an aqueous suspension of Pyrenophora teres spores (12,000 spores per ml). The spores are collected from a 12-day-old culture. The contaminated barley plants are incubated for 24 hours at about 20° C. and at 100% relative humidity, and then for 12 days at 80% relative humidity. Grading is carried out 12 days after the contamination, in comparison with the control plants.

Experiment [2] deals with Alternaria brassicae. The experiment is described as follows: In vivo test on Alternaria brassicae (preventive spray on radish plants). The conditions noted are these: for efficacy against Alternaria brassicae: 330 ppm, comparison compounds of WO 2004/074280. As for the experimental part:
The active ingredient tested is prepared by potter homogenisation in a concentrated suspension type formulation at 100 g/l. […] Radish plants (Pernot variety) in starter cups, sown on a 50/50 peat soil-pozzolana substrate and grown at 18-20° C., are treated at the cotyledon stage by spraying with the aqueous suspension described above. Plants, used as controls, are treated with an aqueous solution not containing the active material. After 24 hours, the plants are contaminated by spraying them with an aqueous suspension of Alternaria brassicae spores (40,000 spores per cm^3). The spores are collected from a 12-13-day-old culture. The contaminated radish plants are incubated for 6-7 days at about 18° C., under a humid atmosphere. Grading is carried out 6 to 7 days after the contamination, in comparison with the control plants.

As to `Cc1cc(C(=O)NCCc2nc(F)c(F)cc2F)c(C)o1` [Compound B17, 2,5-dimethyl-N-[2-(3,5,6-trifluoropyridin-2-yl)ethyl]-3-furamide], the “efficacy against Pyrenophora teres” value in experiment [1] was “no efficacy”. For the same compound, in experiment [2], the “efficacy against Alternaria brassicae” value is given as “no efficacy”. As to `CSc1sc(C(=O)NCCc2ncc(C(F)(F)F)cc2Cl)c(I)c1S(=O)(=O)C(C)C` [Compound C10, N-{2-[3-chloro-5-(trifluoromethyl)pyridin-2-yl]ethyl}-3-iodo-4-(isopropylsulfonyl)-5-(methylthio)thiophene-2-carboxamide], in experiment [1], the “efficacy against Pyrenophora teres” value was “no efficacy”. Moreover, the “efficacy against Alternaria brassicae” value in experiment [2] is on record as “no efficacy”. For the compound `Cn1cccc1C(=O)NCCc1ncc(C(F)(F)F)cc1Cl` [Compound F1, N-{2-[3-chloro-5-(trifluoromethyl)pyridin-2-yl]ethyl}-1-methyl-1H-pyrrole-2-carboxamide], the “efficacy against Pyrenophora teres” value in experiment [1] is “no efficacy”. The “efficacy against Alternaria brassicae” value in experiment [2] is listed as “no efficacy”. `Cc1nc(-c2ccccc2)sc1C(=O)NCCc1ncc(C(F)(F)F)cc1Cl` [Compound H3, N-{2-[3-chloro-5-(trifluoromethyl)pyridin-2-yl]ethyl}-4-methyl-2-phenyl-1,3-thiazole-5-carboxamide]: the “efficacy against Pyrenophora teres” value in experiment [1] is on record as “no efficacy”. Moreover, the “efficacy against Alternaria brassicae” value in experiment [2] is on record as “no efficacy”.

Take `Cc1c(C(=O)NCCc2ncc(C(F)(F)F)cc2Cl)cnn1-c1ccccc1` [Compound J9, N-{2-[3-chloro-5-(trifluoromethyl)pyridin-2-yl]ethyl}-5-methyl-1-phenyl-1H-pyrazole-4-carboxamide]: in experiment [1], the “efficacy against Pyrenophora teres” value is given as “no efficacy”. In experiment [2], the “efficacy against Alternaria brassicae” value is “no efficacy”. With `Cc1cc(C(=O)NCCc2cn(C)nc2C(F)(F)F)c(C(F)(F)F)o1` [Compound J-3], in experiment [2] (dose of 110 ppm, radish plants (Pernot variety), grading 6 to 7 days after contamination, in comparison with control plants), the “protection (good (at least 50%) to total)” value is “at least 50%”. For `Cc1onc(-c2ccccc2)c1C(=O)NCCc1ncc(C(F)(F)F)cc1Cl` [Compound M3, N-{2-[3-chloro-5-(trifluoromethyl)pyridin-2-yl]ethyl}-5-methyl-3-phenylisoxazole-4-carboxamide], the “efficacy against Pyrenophora teres” value in experiment [1] is listed as “no efficacy”. The “efficacy against Alternaria brassicae” value in experiment [2] is listed as “no efficacy”. Consider `O=C(NCCc1ccc(Cl)cn1)c1cccnc1Cl` [Compound R32, 2-chloro-N-[2-(5-chloropyridin-2-yl)ethyl]nicotinamide], for which the “efficacy against Pyrenophora teres” value in experiment [1] is recorded as “no efficacy”. For the same compound, the “efficacy against Alternaria brassicae” value in experiment [2] is reported as “no efficacy”. Regarding `O=C(NCCc1ncc(C(F)(F)F)cc1Cl)C1CCN(C(=O)OCc2ccccc2)CC1` [Compound T1, benzyl 4-[({2-[3-chloro-5-(trifluoromethyl)pyridin-2-yl]ethyl}amino)carbonyl]piperidine-1-carboxylate], the “efficacy against Pyrenophora teres” value in experiment [1] is “no efficacy”. In experiment [2], the “efficacy against Alternaria brassicae” value was “no efficacy”.

For `CC1=C(C(=O)NCCc2ncc(Cl)cc2F)SCCO1` [Compound V9, N-[2-(5-chloro-3-fluoropyridin-2-yl)ethyl]-2-methyl-5,6-dihydro-1,4-oxathiine-3-carboxamide], in experiment [1], the “efficacy against Pyrenophora teres” value is on record as “no efficacy”. Moreover, in experiment [2], the “efficacy against Alternaria brassicae” value is on record as “no efficacy”. Regarding `CC1=C(C(=O)NCCc2nc(Cl)ccc2Cl)SCCO1` [Compound V10, N-[2-(3,6-dichloropyridin-2-yl)ethyl]-2-methyl-5,6-dihydro-1,4-oxathiine-3-carboxamide], the “efficacy against Pyrenophora teres” value in experiment [1] is “no efficacy”. For the same compound, the “efficacy against Alternaria brassicae” value in experiment [2] was “no efficacy”.
